Results on 3 compounds are retold here after patent publication US20200246364A1, “MEDICAL APPLICATION OF COMPOSITION OF FRUCTOSE-1,6-BISPHOSPHATE AND BLOOD CONCENTRATION STABILIZER THEREOF” (ZHEJIANG UNIVERSITY, priority 2017, published 2020).

SMILES strings stand for the structures.

In data set [1] the test system is glioma cells U87-MG. Briefly: Lactic acid released by glioma cells (glycolysis). It counts as cell-based, human. Particulars: 1.6 mM.
Method: (§1) Human glioma cell strains (U87-MG, KNS-89, SHG-44) were respectively incubated in culture media containing 0.8 mM of trisodium fructose-1,6-bisphosphate salt, and 1.6 mM of trisodium fructose-1,6-bisphosphate salt, and 1.6 mM of 2-deoxyglucose, and the contents of lactic acid as the final glycolytic product released by the cells in the culture media were measured after 12 h, 24 h, 36 h, and 48 h. […] Human glioma cell strain (U87-MG) was incubated in the culture medium containing 0.8 mM of trisodium fructose-1,6-bisphosphate salt for 1 h, 3 h, 6 h, 12 h, 24 h, 36 h, and 48 h, and level changes of key metabolic enzymes in the glycolytic pathway of cells were measured by Western Blot at the respective time points.
The test system of data set [2] is glioma cells SHG-44. As to the kind of experiment: Lactic acid released by glioma cells (glycolysis). It counts as cell-based, human. Particulars: SHG-44, 1.6 mM.
Method: as §1
The subject of data set [3] is glioma cells KNS-89. As to the kind of experiment: Lactic acid released by glioma cells (glycolysis). It counts as cell-based, human. The settings on record: KNS-89, 1.6 mM.
Method: as §1
Data set [4] deals with fructose-1,6-bisphosphatase 1. As to the kind of experiment: Kidney protein level of fructose-1,6-bisphosphatase 1 after 14 days treatment (Western Blot). It counts as in vivo. The settings on record: SD rats, 14 days i.g.; FBP 500 mg/kg, metformin 150 mg/kg, sitagliptin 20 mg/kg; vs control group. As for the experimental part: 180-200 g SD rats were divided into 4 groups: a saline control group, a trisodium fructose-1,6-bisphosphate hydrate group (500 mg/kg, i.g), a metformin group (150 mg/kg, i.g) or a sitagliptin group (20 mg/kg, i.g), and a trisodium fructose-1,6-bisphosphate and metformin or sitagliptin combination group, 5 rats in each group. All groups were intragastrically treated, metformin or sitagliptin was administrated 0.5 h before fructose-1,6-bisphosphate, and this was repeated in 14 consecutive days. At 3 hours after the last intragastric treatment with fructose-1,6-bisphosphate, rat blood was collected to detect the blood concentration of FBP, kidney tissue was taken and the protein level of fructose-1,6-bisphosphatase 1 was measured by Western Blot.
(In general: In western blotting, separated proteins are transferred to a membrane and probed.)

The subject of data set [5] is Huh-7. As to the kind of experiment: Cell viability, Sulforhodamine B (SRB) staining. The format is cell-based, human. Particulars: Huh-7, 72 h, FBP 0.8 mM. (In SRB staining, fixed cells bind dye roughly in proportion to their protein.)
Method: (§2) Human liver cancer cell strains Bel-7402 and huh-7, which had been incubated for 24 hours, were respectively incubated in a medium containing 1.6 mM or 0.8 mM of trisodium fructose-1,6-bisphosphate, a medium containing 0.2 mM of metformin or 25 μM of sitagliptin, and a medium containing 0.8 mM of trisodium fructose-1,6-bisphosphate and 0.2 mM of metformin/25 μM of sitagliptin for 72 h. A control group (Con) was not treated with the agent. Cell viability was determined by Sulforhodamine B (SRB) staining analysis method.
Data set [6] concerns HCT-8. As to the kind of experiment: Cell viability, Sulforhodamine B (SRB) staining. The format is cell-based, human. Particulars: HCT-8, 72 h, FBP 0.8 mM.
Method: (§3) Human intestinal cancer cell strains SW620 and HCT-8, which had been incubated for 24 hours, were respectively incubated in a medium containing 0.8 mM of trisodium fructose-1,6-bisphosphate, a medium containing 0.2 mM of metformin/100 μM of sitagliptin, and a medium containing 0.8 mM of trisodium fructose-1,6-bisphosphate and 0.2 mM of metformin/100 μM of sitagliptin for 72 h. A control group (Con) was not treated with the agent. Cell viability was determined by Sulforhodamine B (SRB) staining analysis method.
The test system of data set [7] is melanoma B16 cell. As to the kind of experiment: Cell viability, Sulforhodamine B (SRB) staining. Particulars: Mus musculus, B16, 72 h, read-out: cell viability inhibited.
Method: Mouse melanoma B16 cells, which had been incubated for 24 hours, were incubated in a medium containing 0.8 mM of trisodium fructose-1,6-bisphosphate, a medium containing 20 μM of sitagliptin, and a medium containing 0.8 mM of trisodium fructose-1,6-bisphosphate and 20 μM of sitagliptin for 72 h. A control group (Con) was not treated with the agent. Cell viability was determined by Sulforhodamine B (SRB) staining analysis method.
A short description of data set [8]: Weight gain and fat accumulation caused by high-fat diet. It counts as in vivo, ICR mice. Particulars: high-fat diet mice.
Method: 40 ICR male mice (17-19 g/per mouse) were divided into 2 groups. […] The animals of the normal group (Naive) were still fed with the basic feed, and the model animals were equally divided into 4 groups and were further fed with the high-fat diet. In addition, according to the amount of water the mice had consumed, a certain dose of the agent was dissolved in drinking water. The animals in the model group (Model) were fed with the purified water, the animals in the fructose-1,6-bisphosphate group were fed with water containing 0.18% of 8-molecule hydrate of sodium fructose-1,6-bisphosphate (equivalent to FBP 300 mg/kg), the animals in the sitagliptin group were fed with water containing 0.012% of sitagliptin phosphate salt (equivalent to STG 20 mg/kg), and the animals in the combination group were fed with water containing FBP 500 mg/kg+STG 20 mg/kg. The treatment lasted continuously for 6 weeks, the body weight, food intake and water intake were measured per week, the body weight and body length (CM) were measured on the last day of the last week, and a Lee's INDEX (Lee's INDEX=body weight (g)^(1/3) * 1000/body length (cm)) was calculated to evaluate the state of animal obesity. Then, the animals were sacrificed by cervical vertebra dislocation and the mice were dissected, the epididymal fat pad was taken and weighed, and a fat coefficient was calculated to further investigate the degree of obesity of the mice.
Data set [9] concerns mouse liver cancer cells H22. Briefly: Tumor growth of mouse liver cancer H22 model. It counts as in vivo, ICR mice. The settings on record: FBP 500 mg/kg, i.g., 7 days; for Tumor weight: three times per day; for inhibition of tumor growth (inhibition ratio): H22, metformin 150 mg/kg, sitagliptin 20 mg/kg. As for the experimental part:
The treatment was performed three times per day, in which metformin or sitagliptin was administrated 0.5 h before trisodium fructose-1,6-bisphosphate. This is repeated for 7 days, and situations of the animals during the experiments were observed. The animals were sacrificed 24 hours after the last treatment, the tumor masses were taken out and weighed, and the average tumor weight in each group of animals was used as an efficacy index.

Data set [10] deals with SW620. As to the kind of experiment: cells. The settings on record: Homo sapiens, SW-620, 72 h, read-out: cell viability (Con = 100).
Method: as §3
The test system of data set [11] is Bel-7402. Briefly: cells. The settings on record: Homo sapiens, Bel-7402, 72 h.
Method: as §2

As to `O=CC[C@@H](O)[C@H](O)[C@H](O)CO` [2-DG, 2-deoxy-D-glucose], the “Relative levels of lactic acid (compared with the control group)” value in data set [1] (12 h) came out at 0.48 ± 0.16; in data set [1] (24 h) it was 0.31 ± 0.07; in data set [1] (36 h) it was 0.65 ± 0.10; in [2] (12 h), 0.76 ± 0.15; in data set [2] (24 h), 0.62 ± 0.13; in [2] (36 h) it was 0.57 ± 0.04. Also, the “Relative levels of lactic acid (compared with the control group)” value in data set [3] (12 h) was 0.31 ± 0.09; in data set [3] (24 h), 0.27 ± 0.13; in [3] (36 h) it was 0.31 ± 0.02.
As a reminder, the viability is a read-out of living cells in per cent, often relative to untreated cells. For `N[C@@H](CC(=O)N1CCn2c(nnc2C(F)(F)F)C1)Cc1cc(F)c(F)cc1F` [STG, sitagliptin], in data set [4], the “protein level of fructose-1,6-bisphosphatase 1 in kidney tissue (Western Blot)” value is “not significantly changed”. Besides, the viability at 25 µM in [5] (Homo sapiens, STG 25 μM, read-out: cell viability (Con = 100)) was found to be 92.1 ± 1.35%. The cell viability inhibited entry in [5] (sitagliptin 25 μM) is “no significant difference”; in [6] (sitagliptin 100 μM) it was “did not affect”. The viability at 100 µM in data set [6] (Homo sapiens, STG 100 μM, read-out: cell viability (Con = 100)) amounted to 95.4 ± 3.79%. In addition, the cytotoxicity at 20 µM in data set [7] worked out at 16%. Moreover, the “fat coefficient (epididymal fat pad)” value in data set [8] (6 weeks, model group 3.96±0.83%, normal group 1.58±0.68%) came out at 3.28±1.14%. Further, the “Lee's INDEX” value in [8] (6 weeks, model group 353.28±9.64, normal group 337.05±9.96) is 346.34±9.36. In addition, in data set [8] (agents in drinking water, FBP 300 mg/kg, STG 20 mg/kg, combination FBP 500 mg/kg+STG 20 mg/kg, model group 47.89±3.34), the “body weight after 6 weeks” value worked out at 46.78 ± 6.1 g. In data set [9] (H22, sitagliptin experiment, STG 20 mg/kg, Con 1.48 ± 0.34), this compound registered a Tumor weight of 0.78 ± 0.31 g. Further, in [9], the “inhibition of tumor growth (inhibition ratio)” value turned out to be 46.12%.
For `CN(C)C(=N)N=C(N)N` [Met, metformin], the results for the viability at 200 µM in [10] and in [11] (read-out: cell viability (Con = 100)) were 95.9 ± 7.54% and 91.7 ± 1.62%, respectively. In [4], the “protein level of fructose-1,6-bisphosphatase 1 in kidney tissue (Western Blot)” value was “not significantly changed”. The cytotoxicity at 200 µM in data set [11] (read-out: cell viability inhibited) was 5%. The same compound gave a Tumor weight in [9] (H22, metformin experiment, Met 150 mg/kg, Con 1.66 ± 0.29) of 1.46 ± 0.23 g. Also, the “inhibition of tumor growth (inhibition ratio)” value in [9] is reported as “no significant difference”.
